Results as given in ChEMBL document CHEMBL1649413, “Structure-activity relationship of 4(5)-aryl-2-amino-1H-imidazoles, N1-substituted 2-aminoimidazoles and imidazo[1,2-a]pyrimidinium salts as inhibitors of biofilm formation by Salmonella typhimurium and Pseudomonas aeruginosa” (J Med Chem, 2011).
The source made the active and inactive calls. No cut-off for these calls is given here.

What was measured:
Salmonella typhimurium [1] = assay: Antimicrobial activity against Salmonella Typhimurium ATCC 14028 assessed as inhibition of planktonic growth at 40 uM at 25 degC after 24 hrs; type: functional, organism-based; conditions: Salmonella enterica subsp. enterica serovar Typhimurium
Salmonella typhimurium [2] = assay: Antibiofilm activity in Salmonella Typhimurium ATCC 14028 assessed as inhibition of biofilm formation at 25 degC after 24 hrs; type: functional, organism-based, Salmonella enterica subsp. enterica serovar Typhimurium; conditions: Salmonella enterica, ATCC 14028, 24 h
Pseudomonas aeruginosa [3] = assay: Antimicrobial activity against Pseudomonas aeruginosa assessed as inhibition of planktonic growth at 80 uM at 25 degC after 24 hrs; type: functional, organism-based
Pseudomonas aeruginosa [4] = assay: Antibiofilm activity in Pseudomonas aeruginosa assessed as inhibition of biofilm formation at 25 degC after 24 hrs; type: functional, organism-based
Pseudomonas aeruginosa [5] = assay: Antimicrobial activity against Pseudomonas aeruginosa assessed as inhibition of planktonic growth at 5 uM at 25 degC after 24 hrs; type: functional, organism-based
Salmonella typhimurium [6] = assay: Antimicrobial activity against Salmonella Typhimurium ATCC 14028 assessed as inhibition of planktonic growth at 80 uM at 25 degC after 24 hrs; type: functional, organism-based; conditions: Salmonella enterica subsp. enterica serovar Typhimurium
Salmonella typhimurium [7] = assay: Antimicrobial activity against Salmonella Typhimurium ATCC 14028 assessed as inhibition of planktonic growth at 10 uM at 25 degC after 24 hrs; type: functional, organism-based; conditions: Salmonella enterica subsp. enterica serovar Typhimurium
Pseudomonas aeruginosa [8] = assay: Antimicrobial activity against Pseudomonas aeruginosa assessed as inhibition of planktonic growth at 40 uM at 25 degC after 24 hrs; type: functional, organism-based
Salmonella typhimurium [9] = assay: Antimicrobial activity against Salmonella Typhimurium ATCC 14028 assessed as inhibition of planktonic growth at 20 uM at 25 degC after 24 hrs; type: functional, organism-based; conditions: Salmonella enterica subsp. enterica serovar Typhimurium
Pseudomonas aeruginosa [10] = assay: Antimicrobial activity against Pseudomonas aeruginosa assessed as inhibition of planktonic growth at 10 uM at 25 degC after 24 hrs; type: functional, organism-based
Salmonella typhimurium [11] = assay: Antimicrobial activity against Salmonella Typhimurium ATCC 14028 assessed as inhibition of planktonic growth at 4 uM at 25 degC after 24 hrs; type: functional, organism-based; conditions: Salmonella enterica subsp. enterica serovar Typhimurium
Pseudomonas aeruginosa [12] = assay: Antimicrobial activity against Pseudomonas aeruginosa assessed as inhibition of planktonic growth at 20 uM at 25 degC after 24 hrs; type: functional, organism-based
Pseudomonas aeruginosa [13] = assay: Antimicrobial activity against Pseudomonas aeruginosa assessed as inhibition of planktonic growth at 100 uM at 37 degC after 24 hrs; type: functional, organism-based
Salmonella typhimurium [14] = assay: Antimicrobial activity against Salmonella Typhimurium ATCC 14028 assessed as inhibition of planktonic growth at 200 uM at 25 degC after 24 hrs; type: functional, organism-based; conditions: Salmonella enterica subsp. enterica serovar Typhimurium
Pseudomonas aeruginosa [15] = assay: Antibiofilm activity in Pseudomonas aeruginosa assessed as inhibition of biofilm formation at 37 degC after 24 hrs; type: functional, organism-based
Pseudomonas aeruginosa [16] = assay: Antimicrobial activity against Pseudomonas aeruginosa assessed as inhibition of planktonic growth at 20 uM at 37 degC after 24 hrs; type: functional, organism-based
Salmonella typhimurium [17] = assay: Antibiofilm activity in Salmonella Typhimurium ATCC 14028 assessed as inhibition of biofilm formation at 37 degC after 24 hrs; type: functional, organism-based, Salmonella enterica subsp. enterica serovar Typhimurium; conditions: Salmonella enterica, ATCC 14028, 24 h
Pseudomonas aeruginosa [18] = assay: Antimicrobial activity against Pseudomonas aeruginosa assessed as inhibition of planktonic growth at 40 uM at 37 degC after 24 hrs; type: functional, organism-based
Salmonella typhimurium [19] = assay: Antimicrobial activity against Salmonella Typhimurium ATCC 14028 assessed as inhibition of planktonic growth at 100 uM at 37 degC after 24 hrs; type: functional, organism-based; conditions: Salmonella enterica subsp. enterica serovar Typhimurium
Pseudomonas aeruginosa [20] = assay: Antimicrobial activity against Pseudomonas aeruginosa assessed as inhibition of planktonic growth at 100 uM at 25 degC after 24 hrs; type: functional, organism-based
Salmonella typhimurium [21] = assay: Antimicrobial activity against Salmonella Typhimurium ATCC 14028 assessed as inhibition of planktonic growth at 400 uM at 25 degC after 24 hrs; type: functional, organism-based; conditions: Salmonella enterica subsp. enterica serovar Typhimurium
Salmonella typhimurium [22] = assay: Antimicrobial activity against Salmonella Typhimurium ATCC 14028 assessed as inhibition of planktonic growth at 400 uM at 37 degC after 24 hrs; type: functional, organism-based; conditions: Salmonella enterica subsp. enterica serovar Typhimurium
Salmonella typhimurium [23] = assay: Antimicrobial activity against Salmonella Typhimurium ATCC 14028 assessed as inhibition of planktonic growth at 250 uM at 37 degC after 24 hrs; type: functional, organism-based; conditions: Salmonella enterica subsp. enterica serovar Typhimurium
Salmonella typhimurium [24] = assay: Antimicrobial activity against Salmonella Typhimurium ATCC 14028 assessed as inhibition of planktonic growth at 150 uM at 25 degC after 24 hrs; type: functional, organism-based; conditions: Salmonella enterica subsp. enterica serovar Typhimurium
Salmonella typhimurium [25] = assay: Antimicrobial activity against Salmonella Typhimurium ATCC 14028 assessed as inhibition of planktonic growth at 150 uM at 37 degC after 24 hrs; type: functional, organism-based; conditions: Salmonella enterica subsp. enterica serovar Typhimurium

IC50 (Salmonella typhimurium [2]) [µM] | IC50 (Pseudomonas aeruginosa [4]) [µM] | SMILES | inhibition (Salmonella typhimurium [1]) | inhibition (Pseudomonas aeruginosa [3]) | inhibition (Pseudomonas aeruginosa [5]) | inhibition (Salmonella typhimurium [6]) | inhibition (Salmonella typhimurium [7]) | inhibition (Pseudomonas aeruginosa [8]) | inhibition (Salmonella typhimurium [9]) | inhibition (Salmonella typhimurium [11]) | also measured
8.7 | 9.8 | CCCCCCCCCCCCCCn1c(-c2ccccc2)cnc1N | inactive | inactive | – | inactive | inactive | inactive | inactive | – | inhibition (Pseudomonas aeruginosa [10]): inactive
53.2 | 11.3 | CCn1c(-c2ccc(Cl)cc2)cnc1N | Active | – | – | Active | inactive | – | inactive | inactive | inhibition (Pseudomonas aeruginosa [10]): inactive; inhibition (Pseudomonas aeruginosa [12]): inactive
14 | 95.1 | CCn1c(-c2ccc(-c3ccccc3)cc2)cnc1N | Active | – | – | Active | inactive | – | inactive | inactive | –
48.4 | 2.1 | CCCCCn1c(-c2ccccc2)cnc1N | inactive | inactive | inactive | Active | inactive | inactive | inactive | inactive | inhibition (Pseudomonas aeruginosa [10]): inactive
8 | 6 | CCCCCn1c(-c2ccc(Cl)cc2)cnc1N | Active | – | inactive | – | inactive | – | Active | inactive | inhibition (Pseudomonas aeruginosa [10]): inactive; inhibition (Pseudomonas aeruginosa [12]): inactive
85.2 | 4.6 | Nc1ncc(-c2ccccc2)n1C1CCCCC1 | – | inactive | inactive | – | – | inactive | – | – | –
5.7 | > 400 | CCCCCCCCCCn1c(-c2ccc(-c3ccccc3)cc2)cnc1N | inactive | inactive | inactive | – | – | inactive | inactive | inactive | –
35.4 | – | CCCCCCCCn1c(-c2ccc([N+](=O)[O-])cc2)cnc1N | Active | – | – | Active | – | – | – | – | –
453 | 19.1 | CCCCCCCCCCCCCCn1c(-c2ccc(Cl)cc2)cnc1N | – | inactive | inactive | – | – | inactive | – | – | –
16.4 | > 400 | CCCCCCCCCn1c(-c2ccc(-c3ccccc3)cc2)cnc1N | Active | – | – | Active | – | – | inactive | – | –
116 | 19.9 | Nc1ncc(-c2ccccc2)n1C1CCC1 | – | inactive | – | – | – | inactive | – | – | inhibition (Pseudomonas aeruginosa [12]): inactive
7.1 | 12.8 | CCCCCCCCCCCCn1c(-c2ccccc2)cnc1N | – | inactive | – | – | Active | inactive | Active | inactive | inhibition (Pseudomonas aeruginosa [10]): inactive

More lines, now with the values behind:

SMILES | IC50 (Salmonella typhimurium [2]) [µM] | IC50 (Pseudomonas aeruginosa [4]) [µM] | inhibition (Salmonella typhimurium [1]) | inhibition (Pseudomonas aeruginosa [3]) | inhibition (Pseudomonas aeruginosa [5]) | inhibition (Salmonella typhimurium [6]) | inhibition (Salmonella typhimurium [7]) | inhibition (Pseudomonas aeruginosa [8]) | inhibition (Salmonella typhimurium [9]) | inhibition (Salmonella typhimurium [11]) | also measured
Nc1ncc(-c2ccc(Cl)cc2)n1C1CCC1 | 11.6 | 6 | Active | Active | inactive | Active | inactive | inactive | – | – | –
Nc1ncc(-c2ccccc2)n1C1CCCCCCCCCCC1 | 14.6 | > 800 | inactive | – | – | inactive | inactive | – | – | – | –
Cc1ccc(-c2[nH]c(N)nc2-c2ccc(Cl)cc2)cc1 | 12.9 | – | Active | – | – | Active | Active | – | Active | inactive | –
Nc1ncc(-c2ccc(F)cc2)[nH]1 | 84.4 | 15 | Active | – | – | – | – | inactive | – | inactive | inhibition (Pseudomonas aeruginosa [13]): inactive; inhibition (Salmonella typhimurium [14]): Active; IC50 (Pseudomonas aeruginosa [15]): 47.6 µM; inhibition (Pseudomonas aeruginosa [10]): inactive; inhibition (Pseudomonas aeruginosa [16]): inactive; IC50 (Salmonella typhimurium [17]): 238 µM; inhibition (Pseudomonas aeruginosa [18]): inactive
Nc1nc(-c2ccccc2)c(-c2ccccc2)n1C1CCCCC1 | 23.9 | 5 | inactive | – | – | inactive | inactive | inactive | inactive | – | inhibition (Pseudomonas aeruginosa [12]): inactive
Nc1nc(-c2ccc(Cl)cc2)c(-c2ccc(C(F)(F)F)cc2)[nH]1 | 10.8 | – | Active | – | – | Active | Active | – | Active | inactive | –
Nc1ncc(-c2ccc(-c3ccccc3)cc2)n1C1CCCC1 | 7.5 | 353 | Active | – | – | Active | inactive | – | Active | inactive | –
Nc1ncc(-c2ccccc2)n1C1CCCCCCC1 | 40.5 | 4.5 | – | inactive | inactive | Active | inactive | inactive | inactive | – | –
Nc1ncc(-c2ccccc2)n1C1CCCCCC1 | 26.9 | 14.2 | – | inactive | – | – | – | inactive | – | – | inhibition (Pseudomonas aeruginosa [10]): inactive
Nc1ncc(-c2ccccc2)[nH]1 | 130 | 72.6 | inactive | – | – | – | – | – | – | inactive | inhibition (Salmonella typhimurium [19]): inactive; inhibition (Pseudomonas aeruginosa [13]): inactive; inhibition (Pseudomonas aeruginosa [20]): inactive; inhibition (Salmonella typhimurium [21]): Active; inhibition (Salmonella typhimurium [22]): inactive; inhibition (Salmonella typhimurium [23]): inactive; IC50 (Pseudomonas aeruginosa [15]): 22.7 µM; inhibition (Pseudomonas aeruginosa [16]): inactive; IC50 (Salmonella typhimurium [17]): 146 µM; inhibition (Salmonella typhimurium [24]): inactive; inhibition (Salmonella typhimurium [25]): inactive; inhibition (Pseudomonas aeruginosa [18]): inactive
Nc1ncc(-c2ccc(Cl)cc2)[nH]1 | 16 | 3.5 | inactive | – | inactive | – | – | – | – | inactive | inhibition (Salmonella typhimurium [21]): Active; IC50 (Pseudomonas aeruginosa [15]): 29.3 µM; inhibition (Pseudomonas aeruginosa [16]): inactive; IC50 (Salmonella typhimurium [17]): 30.1 µM
Nc1nc(-c2ccc(F)cc2)c(-c2ccc(F)cc2)[nH]1 | 18.2 | – | Active | – | – | Active | inactive | – | Active | inactive | –
